# Test results as given in patent US12590099B2, “Inhibitors of histone deacetylase useful for the treatment or prevention of HIV infection” (Merck Sharp & Dohme LLC, priority 2018, dated 2026).
# Read-outs that look alike come from different tables or passages of the source.
# What was measured:
# Recombinant human HDAC1 = target: T1, Recombinant human HDAC1 (Homo sapiens, UniProt Q13547); assay: Human HDAC enzyme inhibitor Fluor-de-Lys assay, HDAC1; type: biochemical
# T1 construct: FLAG (C); made in house
# T1 sequence (Q13547 whole entry): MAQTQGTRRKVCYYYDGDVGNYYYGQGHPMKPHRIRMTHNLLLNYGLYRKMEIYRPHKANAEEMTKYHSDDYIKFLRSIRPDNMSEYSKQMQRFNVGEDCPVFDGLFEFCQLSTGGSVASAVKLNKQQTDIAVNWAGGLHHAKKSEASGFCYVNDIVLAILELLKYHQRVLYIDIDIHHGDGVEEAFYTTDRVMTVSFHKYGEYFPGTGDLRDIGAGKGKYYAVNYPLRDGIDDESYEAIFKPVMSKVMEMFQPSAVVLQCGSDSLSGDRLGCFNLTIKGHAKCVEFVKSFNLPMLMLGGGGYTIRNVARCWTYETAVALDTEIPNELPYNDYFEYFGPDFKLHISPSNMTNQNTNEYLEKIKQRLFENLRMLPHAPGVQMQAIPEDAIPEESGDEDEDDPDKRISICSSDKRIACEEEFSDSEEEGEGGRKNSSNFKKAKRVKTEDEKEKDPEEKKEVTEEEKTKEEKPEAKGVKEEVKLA
# Procedure: (§1) Human HDAC Enzyme Inhibitor Fluor-De-Lys Assay
# (§2) Recombinant human HDAC8 (BML-SE145-0100) and HDAC10 (BML-SE559-0050) enzymes, HDAC substrates BML-KI104 and BML-KI178, and HDAC developer solutions BML-KI105 and BML-KI176 were purchased from Enzo Life Sciences. […] HDAC inhibitor suberoylanilide hydroxamic acid (SAHA) was obtained from Indofine and trichostatin A (TSA) was obtained from Sigma-Aldrich.
# (§3) Recombinant human HDAC1, HDAC2, and HDAC3/SMRT heterodimer were prepared by Merck Research Laboratories. […] The eluted protein was then passed over an anti-HDAC1 immunoaffinity column to remove any complexes containing HDAC1. […]
# (§4) The histone deacetylase activities of HDAC1, HDAC2, HDAC3, HDAC6, and HDAC8 were measured in modified FLUOR DE LYS assays in 384-well format. In this assay, HDAC enzymes are initially incubated with an ε-acetyl (or -trifluoroacetyl)-L-lysine-containing substrate with a C-terminal amide having aminomethylcoumarin as the amine component. HDACs cleave the ε-acetyl group, rendering the resulting product susceptible to AMC cleavage by trypsin. The released AMC is then detected by its fluorescence.
# (§5) The HDAC3/SMRT assay employed buffer B, consisting of 20 mM HEPES, pH 8.0, 1 mM MgCl2, 50 mM NaCl, 2.7 mM KCl, 0.05% BSA, 0.005% Tween 20, and 10 μM IP4. […] The HDAC8 assay employed buffer D, consisting of 20 mM HEPES, pH 8.0, 1 mM MgCl2, 100 mM NaCl, 20 mM KCl, 0.10% n-octyl-β-D-glucoside (Anatrace) and 0.05% BSA. All steps were performed at room temperature (23° C.). The assay was performed by pre-incubating serial dilutions of test compounds with the target HDAC prior to initiation with substrate. Each compound was titrated in a 10-point dose response, using a 1:3 fold dilution scheme, with 0.15 ul of solution added by ECH0555 to the plate, followed by the addition of 20 μl of the appropriate HDAC isoform diluted in appropriate assay buffer. […] Final conditions used for each assay were: 1. HDAC 1, 0.3 nM total enzyme, 20 μM substrate BML-KI104; 2. […] HDAC 3/SMRT, 0.3 nM total enzyme, 20 μM substrate BML-KI104; 4. […] The reactions were stopped and developed by addition of 30 ul of HDAC developer solution containing a saturating level of HDAC inhibitor as follows: 1.
# Recombinant human HDAC8 = target: T2, Recombinant human HDAC8 (Homo sapiens, UniProt Q9BY41); assay: Human HDAC enzyme inhibitor Fluor-de-Lys assay, HDAC8; type: biochemical
# T2 construct: purchased Enzo Life Sciences BML-SE145-0100
# T2 sequence (Q9BY41 1-377): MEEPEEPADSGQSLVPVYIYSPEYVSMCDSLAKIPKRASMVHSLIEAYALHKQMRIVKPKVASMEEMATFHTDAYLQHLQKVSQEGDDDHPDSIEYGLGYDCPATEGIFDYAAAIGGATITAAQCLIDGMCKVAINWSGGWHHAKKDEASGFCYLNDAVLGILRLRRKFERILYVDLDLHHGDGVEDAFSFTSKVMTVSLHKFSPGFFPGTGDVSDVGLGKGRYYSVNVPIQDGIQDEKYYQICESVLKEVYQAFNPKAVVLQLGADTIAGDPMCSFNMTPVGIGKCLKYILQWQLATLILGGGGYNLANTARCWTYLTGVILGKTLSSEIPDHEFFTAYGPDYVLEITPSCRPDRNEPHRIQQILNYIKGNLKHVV
# Recombinant human HDAC2 = target: T3, Recombinant human HDAC2 (Homo sapiens, UniProt Q92769); assay: Human HDAC enzyme inhibitor Fluor-de-Lys assay, HDAC2; type: biochemical
# T3 construct: Full length human HDAC2-FLAG was expressed in baculovirus infected Sf9 cells; FLAG (C); made in house; host or cells: Sf9 (baculovirus)
# T3 sequence (Q92769 whole entry): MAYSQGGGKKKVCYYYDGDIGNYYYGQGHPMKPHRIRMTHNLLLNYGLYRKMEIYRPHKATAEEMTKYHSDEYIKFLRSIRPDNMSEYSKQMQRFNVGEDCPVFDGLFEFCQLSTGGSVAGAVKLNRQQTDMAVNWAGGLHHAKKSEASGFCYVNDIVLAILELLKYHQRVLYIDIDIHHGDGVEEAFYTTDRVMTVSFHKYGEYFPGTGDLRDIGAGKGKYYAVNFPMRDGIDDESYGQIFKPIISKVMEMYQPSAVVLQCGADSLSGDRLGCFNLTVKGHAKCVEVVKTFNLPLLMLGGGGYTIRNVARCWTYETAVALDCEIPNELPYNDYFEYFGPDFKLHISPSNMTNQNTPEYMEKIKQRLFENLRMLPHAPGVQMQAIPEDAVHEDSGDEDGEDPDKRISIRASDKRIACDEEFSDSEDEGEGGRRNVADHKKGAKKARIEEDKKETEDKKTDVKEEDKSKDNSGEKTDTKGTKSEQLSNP
# Procedure: as §1, §2, §3, §4, §5
# [1] = target: T4, Recombinant human HDAC3/SMRT heterodimer (Homo sapiens, UniProt O15379); assay: Human HDAC enzyme inhibitor Fluor-de-Lys assay, HDAC3/SMRT; type: biochemical
# T4 construct: FLAG (C); made in house
# T4 sequence (O15379 whole entry): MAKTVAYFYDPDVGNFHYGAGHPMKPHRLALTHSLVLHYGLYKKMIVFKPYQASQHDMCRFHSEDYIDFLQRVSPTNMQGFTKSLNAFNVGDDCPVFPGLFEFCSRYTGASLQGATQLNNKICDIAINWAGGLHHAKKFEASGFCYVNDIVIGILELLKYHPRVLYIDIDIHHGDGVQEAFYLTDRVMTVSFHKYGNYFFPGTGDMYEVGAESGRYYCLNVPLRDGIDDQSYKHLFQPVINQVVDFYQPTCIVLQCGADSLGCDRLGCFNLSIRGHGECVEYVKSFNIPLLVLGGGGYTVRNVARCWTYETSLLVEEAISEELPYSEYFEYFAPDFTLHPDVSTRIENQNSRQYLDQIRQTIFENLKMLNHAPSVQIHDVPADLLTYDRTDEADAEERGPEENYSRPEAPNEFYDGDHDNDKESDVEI
# T4 sequence (Q9Y618 1-899 partner limits assumed): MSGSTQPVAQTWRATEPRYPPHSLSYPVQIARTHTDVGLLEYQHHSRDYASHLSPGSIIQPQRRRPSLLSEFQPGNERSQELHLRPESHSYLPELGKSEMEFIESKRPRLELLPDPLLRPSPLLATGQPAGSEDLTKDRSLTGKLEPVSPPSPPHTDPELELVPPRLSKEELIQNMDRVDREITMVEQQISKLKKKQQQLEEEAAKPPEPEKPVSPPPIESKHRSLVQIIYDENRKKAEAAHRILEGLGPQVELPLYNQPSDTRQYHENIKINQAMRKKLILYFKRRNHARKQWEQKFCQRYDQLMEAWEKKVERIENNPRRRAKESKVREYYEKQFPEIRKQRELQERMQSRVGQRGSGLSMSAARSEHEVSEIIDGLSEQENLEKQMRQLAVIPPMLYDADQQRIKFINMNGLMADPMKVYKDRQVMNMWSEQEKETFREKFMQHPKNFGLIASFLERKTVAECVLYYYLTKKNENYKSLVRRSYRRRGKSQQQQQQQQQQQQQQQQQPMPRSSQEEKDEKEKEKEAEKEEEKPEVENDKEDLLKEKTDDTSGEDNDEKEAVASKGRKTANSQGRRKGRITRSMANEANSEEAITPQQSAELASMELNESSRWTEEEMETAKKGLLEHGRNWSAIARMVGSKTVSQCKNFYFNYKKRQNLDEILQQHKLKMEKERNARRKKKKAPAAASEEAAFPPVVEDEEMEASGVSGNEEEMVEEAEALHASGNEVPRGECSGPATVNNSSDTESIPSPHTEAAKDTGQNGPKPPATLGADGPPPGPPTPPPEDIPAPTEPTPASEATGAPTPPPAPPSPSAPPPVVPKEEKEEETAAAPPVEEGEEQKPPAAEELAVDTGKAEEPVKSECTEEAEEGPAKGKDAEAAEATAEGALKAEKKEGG
# KARN cells (Jurkat 2C4) = assay: cells; type: cell-based
# In short: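 Luminescence (Steady-Glo, 10 min, room temperature) measured next day in KARN Jurkat 2C4 cells given compounds at up to 40 μM final with 0.4% DMSO. Percent activation normalised to DMSO (0%) and 2 μM SAHA (100%), fitted by 4-parameter curve.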
# [2] = Homo sapiens, Jurkat, read-out: Karn EC50 (nM) 0.1% NHS, 0.1% normal human serum
# [3] = Homo sapiens, Jurkat, read-out: Karn EC50 (nM) 5% NHS, 5% normal human serum
# [4] = read-out: Karn EC50 (nM) 0.1% NHS, 0.1% normal human serum
# [5] = read-out: Karn EC50 (nM) 5% NHS, 5% normal human serum
Compound,IC50 (Recombinant human HDAC1) [nM],IC50 (Recombinant human HDAC8) [nM],IC50 (Recombinant human HDAC2) [nM],IC50 [1] [nM],EC50 (KARN cells (Jurkat 2C4); [2]) [nM],EC50 (KARN cells (Jurkat 2C4); [3]) [nM],EC50 (KARN cells (Jurkat 2C4); [4]) [nM],EC50 (KARN cells (Jurkat 2C4); [5]) [nM]
CCC(=O)CCCCC[C@H](NC(=O)C1=NOC2(CCN(C)CC2)C1)c1ncc(-c2ccc3nn(C)cc3c2)[nH]1 [Compound 154],6.03,12100,19.5,2.76,518,476,,
"CCC(=O)CCCCC[C@H](NC(=O)C1CC12CCN(C)C(C)(C)C2)c1ncc(-c2ccc3nc(C)ccc3c2)[nH]1 (single isomer, unassigned) [Compound 130]",5.6,6000,15.3,2.27,,,503,598
"CCC(=O)CCCCC[C@H](NC(=O)C1CC12CCN(C)C(C)(C)C2)c1ncc(-c2ccc3nc(C)ccc3c2)[nH]1 (single isomer, unassigned) [Compound 132]",2.33,8060,6.5,< 1.5,,,169,281
"CCC(=O)CCCCC[C@H](NC(=O)C1(C)CC12CCN(C(C)C)CC2)c1ncc(-c2ccc3nc(C)ccc3c2)[nH]1 (single isomer, unassigned) [Compound 152, (1S or 1R)-1-methyl-6-(1-methylethyl)-N-{(1S)-1-[5-(2-methylquinolin-6-yl)-1H-imidazol-2-yl]-7-oxononyl}-6-azaspiro[2.5]octane-1-carboxamide]",0.94,5060,4,0.85,128,96,,
CCC(=O)CCCCC[C@H](NC(=O)C1=NOC2(CCN(C(C)C)CC2)C1)c1ncc(-c2ccc3nc(C4CC4)ccc3c2)o1 [Compound 136],10.3,4800,31.2,6.41,2500,,,
CCC(=O)CCCCC[C@H](NC(=O)[C@H]1CC12CCN(CC)CC2)c1ncc(-c2ccc3c(=O)n(C4CC4)ccc3c2)[nH]1 [Compound 150],0.19,4370,1.4,0.25,114,135,,
"CCC(=O)CCCCC[C@H](NC(=O)C1CC12CCN(C)C(C)(C)C2)c1ncc(-c2ccc3nc(C)ccc3c2)[nH]1 (single isomer, unassigned) [Compound 131]",0.48,2780,2.5,0.57,,,126,128
"CCC(=O)CCCCC[C@H](N)c1ncc(-c2cc3ccc(C)nc3cc2OC)[nH]1 [Compound 209, (S)-9-amino-9-(5-(7-methoxy-2-methylquinolin-6-yl)-1H-imidazol-2-yl)nonan-3-one]",52.9,144,151,21.6,1440,4950,,
CCC(=O)CCCCC[C@H](NC(=O)[C@H]1CC12CCN(C(C)C)CC2)c1ncc(-c2ccc3nc(C4CC4)ccc3c2)o1 [Compound 116],4.37,> 15000,15.7,3.88,630,617,,
CCC(=O)CCCCC[C@H](NC(=O)[C@H]1CC12CCN(C)CC2)c1ncc(-c2ccc3nc(C4CC4)sc3c2)[nH]1 [Compound 146],1.06,7710,3.3,0.64,122,112,,
CCC(=O)CCCCC[C@H](NC(=O)C1=NOC2(CCN(C)CC2)C1)c1ncc(-c2cc3ccc(C)nc3cc2OC)o1 [Compound 196],1.42,> 900,6,0.73,154,162,,
"CCC(=O)CCCCC[C@H](NC(=O)[C@@]1(C)CC12CCN(C(C)C)CC2)c1ncc(-c2ccc3nc(C)ccc3c2)[nH]1 (single isomer, unassigned) [Compound 151, (1S or 1R)-1-methyl-6-(1-methylethyl)-N-{(1S)-1-[5-(2-methylquinolin-6-yl)-1H-imidazol-2-yl]-7-oxononyl}-6-azaspiro[2.5]octane-1-carboxamide]",5.74,3180,21.8,3.94,583,864,,
CCC(=O)CCCCC[C@H](NC(=O)[C@H]1CC12CCN(C)CC2)c1ncc(-c2ccc3nc(C4CC4)ccc3c2)o1 [Compound 121],1.39,15300,4.4,1.16,232,242,,
COc1cc2nc(C)ccc2cc1-c1cnc([C@H](CCCCCC(=O)CC2CCC2)NC(=O)[C@H]2CC23CCN(C)CC3)o1 [Compound 185],15.1,> 45000,38,26,1330,2960,,
CCC(=O)CCCCC[C@H](NC(=O)[C@H]1CC[C@]2(CC1)OC(=O)c1ncccc12)c1ncc(-c2ccc3nc(C4CC4)ccc3c2)o1 [Compound 122],56.7,29300,157,20.5,1130,2840,,
CCC(=O)CCCCC[C@H](NC(=O)[C@H]1CC12CCN(C)CC2)c1ncc(-c2ccc3nc(C)cc(Cl)c3c2)[nH]1 [Compound 174],0.55,1210,2.1,0.43,67,82,,
CCC(=O)CCCCC[C@H](NC(=O)[C@H]1CC12CCN(CC)CC2)c1ncc(-c2cc3nn(C)cc3cc2OC)o1 [Compound 189],7.33,27500,30,2.34,282,300,,
